Source: patent US10611751B2, “Dopamine D1 receptor positive allosteric modulators” (Eli Lilly and Company, priority 2018, dated 2020)
Read-outs that look alike come from different tables or passages of the source.

Key:
[1] = test system: normal rats; assay: In vivo tolerability in normal rats; conditions: broad dose range
Source text: Compounds of the invention, for instance Example 1, show an advantageous combination of pharmacological properties, such as potentiation of human D1 receptor signaling in response to dopamine, high oral in vivo availabilty, in vivo efficacy in locomotor activation of animals that are habituated to the environment, and a favorable toxicity profile in preclinical testing. […].

[2] = Plasma and Brain Levels after oral dosing; format: in vivo; conditions: fed
Method: Example 1 is orally dosed to male mouse from 1 mg/kg to 30 mg/kg in fed condition, and the plasma and brain concentration are determined 1.5 hr post-dose. The fraction unbound of the compound is determined in vitro as described previously (Zamek-Gliszczynski M J, Ruterbories K J, Ajamie R T, Wickremsinhe E R, Pothuri L, Rao M V, Basavanakatti V N, Pinjari J, Ramanathan V K, Chaudhary A K (2011) Validation of 96-well equilibrium dialysis with non-radiolabeled drug for definitive measurement of protein binding and application to clinical development of highly-bound drugs. J Pharm Sci 100: 2498-2507). The ratio (Kpuu) of unbound brain concentration (Cu,brain) vs. unbound plasma concertation (Cu,plasma) is determined as described previously (Raub T J, Wishart G N, Kulanthaivel P, Staton B A, Ajamie R T, Sawada G A, Gelbert L M, Shannon H E, Sanchez-Martinez C, De Dios A (2015) Brain Exposure of Two Selective Dual CDK4 and CDK6 Inhibitors and the Antitumor Activity of CDK4 and CDK6 Inhibition in Combination with Temozolomide in an Intracranial Glioblastoma Xenograft. Drug Metab Dispos. 43:1360-71). The data presented below for Example 1 are averages from 3 animals at each dose. “Con.” refers to concentration. […]

[3] = 3 mg/kg oral, male mouse, 1.5 hr
[4] = 3 mg/kg oral, male mouse, 1.5 hr, read-out: Brain con.
[5] = 3 mg/kg oral, male mouse, 1.5 hr, read-out: Cu, brain
[6] = 3 mg/kg oral, male mouse, 1.5 hr, read-out: Cu, plasma
[7] = 10 mg/kg oral, male mouse, 1.5 hr
[8] = 10 mg/kg oral, male mouse, 1.5 hr, read-out: Brain con.
[9] = 10 mg/kg oral, male mouse, 1.5 hr, read-out: Cu, brain
[10] = 10 mg/kg oral, male mouse, 1.5 hr, read-out: Cu, plasma
[11] = 30 mg/kg oral, male mouse, 1.5 hr
[12] = 30 mg/kg oral, male mouse, 1.5 hr, read-out: Brain con.
[13] = 30 mg/kg oral, male mouse, 1.5 hr, read-out: Cu, brain
[14] = 30 mg/kg oral, male mouse, 1.5 hr, read-out: Cu, plasma
[15] = brain/plasma, 3 mg/kg oral, male mouse, 1.5 hr, read-out: Kpuu (Cu,brain vs. Cu,plasma)
[16] = brain/plasma, 10 mg/kg oral, male mouse, 1.5 hr, read-out: Kpuu (Cu,brain vs. Cu,plasma)
[17] = brain/plasma, 30 mg/kg oral, male mouse, 1.5 hr, read-out: Kpuu (Cu,brain vs. Cu,plasma)

| SMILES | Plasma con. [2, 3] [nM] | concentration at 1 h [2, 4] [nM] | concentration at 1 h [2, 5] [nM] | concentration at 1 h [2, 6] [nM] | Plasma con. [2, 7] [nM] | concentration at 1 h [2, 8] [nM] | concentration at 1 h [2, 9] [nM] | concentration at 1 h [2, 10] [nM] | Plasma con. [2, 11] [nM] | concentration at 1 h [2, 12] [nM] | concentration at 1 h [2, 13] [nM] | concentration at 1 h [2, 14] [nM] | Kp uu [2, 15] | Kp uu [2, 16] | Kp uu [2, 17] | further results |
| --- | --- | --- | --- | --- | --- | --- | --- | --- | --- | --- | --- | --- | --- | --- | --- | --- |
| C[C@H]1c2cccc(-c3cnn(C)c3)c2C[C@H](CO)N1C(=O)Cc1c(Cl)cccc1Cl [Example 1, 2-(2,6-dichlorophenyl)-1-((1S,3R)-3-(hydroxymethyl)-1-methyl-5-(1-methyl-1H-pyrazol-4-yl)-3,4-dihydroisoquinolin-2(1H)-yl)ethan-1-one] | 86.6 | 60 | 1.5 | 2.34 | 120 | 57.6 | 1.44 | 3.23 | 1660 | 794 | 19.9 | 44.9 | 1.06 | 0.44 | 0.65 | Tolerability / toxicity in vivo (in words) [1]: generally well tolerated; Cu, brain ([2]; 1 mg/kg oral, male mouse, 1.5 hr): BQL; Brain con. ([2]; 1 mg/kg oral, male mouse, 1.5 hr, BQL = below 1 ng/mg tissue): BQL; Kp uu at 1.5 h ([2]; brain/plasma, 6 mg/kg oral, male mouse, read-out: Kpuu (Cu,brain vs. Cu,plasma)): 0.65; concentration at 1.5 h ([2]; male, mouse, brain, oral, 6 mg/kg, 6 mg/kg oral, read-out: Brain con.): 129 nM; concentration at 1.5 h ([2]; male, mouse, brain, oral, 6 mg/kg, 6 mg/kg oral, read-out: Cu, brain): 3.22 nM; concentration at 1.5 h ([2]; male, mouse, plasma, oral, 1 mg/kg, 1 mg/kg oral, read-out: Cu, plasma): 0.182 nM; concentration at 1.5 h ([2]; male, mouse, plasma, oral, 1 mg/kg, 1 mg/kg oral, read-out: Plasma con.): 6.74 nM; concentration at 1.5 h ([2]; male, mouse, plasma, oral, 6 mg/kg, 6 mg/kg oral, read-out: Cu, plasma): 4.67 nM; concentration at 1.5 h ([2]; male, mouse, plasma, oral, 6 mg/kg, 6 mg/kg oral, read-out: Plasma con.): 173 nM |
| C[C@H]1c2cccc(-c3cn[nH]c3)c2C[C@H](CO)N1C(=O)Cc1c(Cl)cccc1Cl [Example 8, 2-(2,6-dichlorophenyl)-1-((1S,3R)-3-(hydroxymethyl)-1-methyl-5-(1H-pyrazol-4-yl)-3,4-dihydroisoquinolin-2(1H)-yl)ethan-1-one] | 87.4 | 66.3 | 0.66 | 2.71 | 901 | 267 | 2.67 | 27.9 | 10321 | 2391 | 23.9 | 320 | 0.24 | 0.1 | 0.07 | Kp uu at 1 h ([2]; brain/plasma, 20 mg/kg oral, male mouse, 1.5 hr, read-out: Kpuu (Cu,brain vs. Cu,plasma)): 0.1; Kp uu at 1 h ([2]; brain/plasma, 60 mg/kg oral, male mouse, 1.5 hr, read-out: Kpuu (Cu,brain vs. Cu,plasma)): 0.08; concentration at 1 h ([2]; male, mouse, brain, oral, 20 mg/kg, 20 mg/kg oral, 1.5 hr, read-out: Brain con.): 721 nM; concentration at 1 h ([2]; male, mouse, brain, oral, 20 mg/kg, 20 mg/kg oral, 1.5 hr, read-out: Cu, brain): 7.21 nM; concentration at 1 h ([2]; male, mouse, brain, oral, 60 mg/kg, 60 mg/kg oral, 1.5 hr, read-out: Brain con.): 5000 nM; concentration at 1 h ([2]; male, mouse, brain, oral, 60 mg/kg, 60 mg/kg oral, 1.5 hr, read-out: Cu, brain): 50 nM; concentration at 1 h ([2]; male, mouse, plasma, oral, 20 mg/kg, 20 mg/kg oral, 1.5 hr, read-out: Cu, plasma): 75.7 nM; concentration at 1 h ([2]; male, mouse, plasma, oral, 20 mg/kg, 20 mg/kg oral, 1.5 hr, read-out: Plasma con.): 2440 nM; concentration at 1 h ([2]; male, mouse, plasma, oral, 60 mg/kg, 60 mg/kg oral, 1.5 hr, read-out: Cu, plasma): 622 nM; concentration at 1 h ([2]; male, mouse, plasma, oral, 60 mg/kg, 60 mg/kg oral, 1.5 hr, read-out: Plasma con.): 20100 nM |
